The values below come from patent publication US20090221559A1 (priority 2005, published 2009).

For series [1], the system named is HCV replicon RNA replication in Huh-7 luc/neo (Huh-Luc) cells. The experiment in a line: HCV replicon assay (stable replicon cell reporter assay, luciferase read-out). It counts as cell-based, HCV type 1b. A digest of the protocol: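 Three-day compound exposure used Huh-Luc cells, which harbour an autonomously replicating genotype 1b NS3-NS5B replicon expressing luciferase and neo^R. Luciferase signal served as the replication read-out, and dose-response curves came from several concentrations per compound.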
Background: In antiviral work, replicon cells carry a viral genome segment that copies itself.

For series [2], the target named is T1, HCV NS5B polymerase (His-tagged, C-terminal 21 amino acid deleted NS5B, HC-J4) (Hepatitis C virus genotype 1b, UniProt O92972).
T1 construct: The cDNA encoding NS5B amino acid 1-570 (HC-J4, genotype 1b); His tag (His6, from pET-21b) (C); made in house; host or cells: E. coli BL21 (DE3)
T1 sequence (O92972 2417-3000, looked up, stated change not applied): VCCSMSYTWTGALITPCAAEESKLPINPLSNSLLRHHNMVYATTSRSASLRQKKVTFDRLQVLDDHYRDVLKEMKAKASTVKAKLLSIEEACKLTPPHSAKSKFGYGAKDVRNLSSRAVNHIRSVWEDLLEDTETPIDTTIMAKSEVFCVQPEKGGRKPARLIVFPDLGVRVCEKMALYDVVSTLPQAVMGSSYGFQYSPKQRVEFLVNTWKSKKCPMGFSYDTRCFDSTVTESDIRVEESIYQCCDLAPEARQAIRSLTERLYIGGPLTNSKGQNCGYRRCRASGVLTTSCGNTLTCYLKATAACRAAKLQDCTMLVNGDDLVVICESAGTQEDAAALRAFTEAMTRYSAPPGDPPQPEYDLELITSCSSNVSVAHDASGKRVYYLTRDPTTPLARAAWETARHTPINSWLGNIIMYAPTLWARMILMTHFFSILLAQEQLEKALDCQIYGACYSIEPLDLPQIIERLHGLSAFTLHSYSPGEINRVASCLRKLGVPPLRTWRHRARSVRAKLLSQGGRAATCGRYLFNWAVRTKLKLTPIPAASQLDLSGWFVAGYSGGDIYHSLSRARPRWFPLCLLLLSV
The experiment in a line: NS5b polymerase assay (biochemical RdRp assay, 3H-GTP incorporation, SPA beads). On the set-up: species or system HCV genotype 1b. A digest of the protocol:
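3H-GTP incorporation into newly made RNA was captured on SPA beads added in EDTA after 2 h at 25 °C. Compounds in DMSO met preformed enzyme–template complex (200 nM truncated His-NS5B, HC-J4 1b; biotin-oligo(rG13)/poly(rC)) for 15 min at RT, then 600 nM GTP, 5 mM MgCl2, Tris pH 7.5 started polymerization.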

[3] abbreviates: Hepatitis C virus, Huh-7, 72 h, read-out: Replicon Assay EC50, Huh-Luc cells, three days incubation, luciferase activity.
The mark [4] stands for this setting: NS5B Polymerase Assay IC50, 200 nM enzyme, 3H-GTP incorporation, 2 h at 25° C.
The mark [5] stands for this setting: Huh-Luc cells, three days incubation, luciferase activity, read-out: Replicon Assay EC50.
[6] abbreviates: 200 nM enzyme, 3H-GTP incorporation, 2 h at 25° C., read-out: NS5B Polymerase Assay IC50.
[7] abbreviates: Hepatitis C virus, Huh-7, 72 h, read-out: Replicon Assay EC50 (μM), Huh-Luc cells, incubation of three days, luciferase activity.
Where [8] appears, read: NS5B Polymerase Assay IC50 (μM).

Where two headings read alike, the source gives them in different places. A value given as a limit tells only on which side of the number the result lay.

In general, melting point refers to the temperature, or range, at which the solid turns liquid. On to `C=CCCC(=O)N1c2ccccc2NC2=C(C(=O)CC(C)(C)C2)C1c1ccc(Cl)cc1Cl` (stereo not shown), for which the melting point turned out to be 200 °C.
Consider `CC(=O)N1c2c(CNCCc3ccncc3)cccc2NC2=C(C(=O)CC(C)(C)C2)C1c1ccc(Cl)cc1Cl` (stereo not shown), for which the melting point turned out to be 212 °C.
Consider `CC(=O)N1c2c(cccc2C(=O)NCCc2ccncc2)NC2=C(C(=O)CC(C)(C)C2)C1c1ccc(Cl)cc1Cl` (stereo not shown), for which the melting point was above 260 °C.
The same measure, in the same setting: to `CC1(C)CC(=O)C2=C(C1)Nc1cccc(CO)c1NC2c1ccc(Cl)cc1Cl` (stereo not shown) belongs above 260 °C; to `CC1(C)CC(=O)C2=C(C1)Nc1ccc(CO)cc1NC2c1ccc(Cl)cc1Cl` (stereo not shown), 168 °C.
For orientation: EC50 means the concentration needed to bring the measured effect to its halfway point. As a reminder, the IC50 is the point on the concentration scale where inhibition reaches its midpoint. For `CC1(C)CC(=O)C2=C(C1)Nc1ccccc1N(C(=O)c1ccccc1)C2c1ccc(Cl)cc1Cl` (stereo not shown) [compound 45], the melting point is above 250 °C. In addition, in series [1] (setting [3]), the EC50 amounted to 6.79 µM. The compound further returned an IC50 in series [2] (setting [4]) of 4.83 µM.
The compound `CC1(C)CC(=O)C2=C(C1)Nc1ccccc1N(C(=O)N1CCCCC1)C2c1ccc(Cl)cc1Cl` (stereo not shown) [compound 155] registered a melting point above 260 °C. In series [2] (setting [4]), this compound came in with an IC50 above 133 µM.
`CC(=O)N1c2c(CO)cccc2NC2=C(C(=O)CC(C)(C)C2)C1c1ccc(Cl)cc1Cl` (stereo not shown) yielded a melting point of 200 °C.
`CC(=O)N1c2ccccc2NC2=C(C(=O)CC(C)(C)C2)C1c1ccc(OCc2ccccc2)c(Cl)c1` (stereo not shown) [compound 139, 10-acetyl-11-[4-benzyloxy-3-chlorophenyl]-3,3-dimethyl-2,3,4,5,10,11-hexahydro-1H-dibenzo[b,e][1,4]diazepin-1-one]: the melting point is 197 °C. Also, the EC50 in series [1] (setting [3]) stood at 2.9 µM. The compound further had an IC50 in series [2] (setting [4]) of 1.01 µM.
Turning to `CC(=O)N1c2c(cccc2C(=O)O)NC2=C(C(=O)CC(C)(C)C2)C1c1ccc(Cl)cc1Cl` (stereo not shown), the melting point is above 260 °C.
`CNCc1ccc2c(c1)NC1=C(C(=O)CC(C)(C)C1)C(c1ccc(Cl)cc1Cl)N2C(C)=O` (stereo not shown): the melting point is above 260 °C.
Regarding `COC(=O)c1ccc2c(c1)NC1=C(C(=O)CC(C)(C)C1)C(c1ccc(Cl)cc1Cl)N2C(C)=O` (stereo not shown), the melting point is above 250 °C.
`COC(=O)c1ccc2c(c1)N(C(C)=O)C(c1ccc(Cl)cc1Cl)C1=C(CC(C)(C)CC1=O)N2` (stereo not shown) showed a melting point above 250 °C.
On the same count and under the same terms, to `CC(=O)N1c2ccccc2NC2=C(C(=O)CC(C)(C)C2)C1/C(Cl)=C/c1ccccc1` (stereo not shown) belongs 258 °C.
As to `CC(=O)N1c2ccccc2N(C)C2=C(C(=O)CC(C)(C)C2)C1c1ccc(Cl)cc1Cl` (stereo not shown) [compound 322], the melting point came out at 145 °C. For the same compound, the EC50 in series [1] (setting [3]) was determined as 44.1 µM.
Turning to `CC(=O)N1c2ccc(CCCN)cc2NC2=C(C(=O)CC(C)(C)C2)C1c1ccc(Cl)cc1Cl` (stereo not shown), the melting point is 242 °C.
On the same count and under the same terms, to `CCOC(=O)c1cccc2c1NC(c1ccc(Cl)cc1Cl)C1=C(CC(C)(C)CC1=O)N2` (stereo not shown) belongs 208 °C.
`CC(=O)N1c2cc(C#N)ccc2NC2=C(C(=O)CC(C)(C)C2)C1c1ccc(Cl)cc1Cl` (stereo not shown) [compound 318]: the melting point was above 250 °C. For the same compound, inhibition in series [2] (setting [4]) was half-maximal at 67.1 µM (IC50).
`CC(=O)N1c2ccc(CN(C)C)cc2NC2=C(C(=O)CC(C)(C)C2)C1c1ccc(Cl)cc1Cl` (stereo not shown) returned a melting point above 260 °C.
`CC(=O)N1c2c(CNCCN3CCOCC3)cccc2NC2=C(C(=O)CC(C)(C)C2)C1c1ccc(Cl)cc1Cl` (stereo not shown) registered a melting point of 236 °C.
Still for that read-out and setting: to `CC(=O)N1c2c(cccc2C(=O)NCCCN(C)C)NC2=C(C(=O)CC(C)(C)C2)C1c1ccc(Cl)cc1Cl` (stereo not shown) belongs 226 °C; to `CC(=O)N1c2c(CN3CCOCC3)cccc2NC2=C(C(=O)CC(C)(C)C2)C1c1ccc(Cl)cc1Cl` (stereo not shown), above 260 °C; to `CC1(C)CC(=O)C2=C(C1)Nc1cc(CO)ccc1NC2c1ccc(Cl)cc1Cl` (stereo not shown), 160 °C.
`CC1(C)CC(=O)C2=C(C1)Nc1ccccc1N(C(=O)CC(=O)O)C2c1ccc(Cl)cc1Cl` (stereo not shown) registered a melting point of 200 °C.
Same read-out and setting: to `CC(=O)N1c2ccc(C(=O)O)cc2NC2=C(C(=O)CC(C)(C)C2)C1c1ccc(Cl)cc1Cl` (stereo not shown) belongs above 250 °C.
For `CC(=O)N1c2ccc(CN)cc2NC2=C(C(=O)CC(C)(C)C2)C1c1ccc(Cl)cc1Cl` (stereo not shown), the melting point is above 260 °C.
`CC(=O)N1c2c(CNCCCN(C)C)cccc2NC2=C(C(=O)CC(C)(C)C2)C1c1ccc(Cl)cc1Cl` (stereo not shown) came in with a melting point of 258 °C.
Regarding `COc1ccc(C2CC(=O)C3=C(C2)Nc2ccccc2N(C(=O)C(F)(F)F)C3c2ccc(Cl)cc2)cc1` (mixture of isomers) [compound 210], the EC50 in series [1] (setting [5]) worked out at 12.1 µM. Also, the IC50 in series [2] (setting [6]) is above 33.3 µM.
Take `CCCOc1ccccc1C1C2=C(CC(C)(C)CC2=O)Nc2ccccc2N1C(=O)CC` (stereo not shown) [compound 63]: the EC50 in series [1] (setting [3]) turned out to be 5 µM. The IC50 in series [2] (setting [4]) is above 42.7 µM.
As for `COc1ccc(C2CC(=O)C3=C(C2)Nc2ccccc2NC3c2ccc(C(F)(F)F)cc2)cc1` (stereo not shown) [compound 329], in series [1] (setting [7]), the EC50 was determined as 11.1 µM. The compound also displayed an IC50 in series [2] (setting [8]) above 33.3 µM.
Regarding “3-(2-benzyloxyphenyl)-11-[3-(4-chlorobenzoyloxy)phenyl]-2,3,4,5,10,11-hexahydro-dibenzo[b,e][1,4]diazepin-1-one [compound 513]”, the EC50 in series [1] (Huh-Luc cells, incubation of three days, luciferase activity, read-out: Replicon Assay EC50) stood at 3.67 µM. In addition, in series [2] (read-out: NS5B Polymerase Assay IC50), the IC50 amounted to 70.1 µM.
Take `CC1(C)CC(=O)C2=C(C1)Nc1cc(Cl)c(Cl)cc1NC2c1ccc(Cl)cc1Cl` (stereo not shown) [compound 465, 7,8-Dichloro-11-(2,4-dichlorophenyl)-2,3,4,5,10,11-hexahydro-3,3-dimethyl-1H-dibenzo[b,e][1,4]diazepin-1-one]: the EC50 in series [1] (setting [7]) came to 3.84 µM. In series [2] (setting [8]), this compound registered an IC50 of 60 µM.
Turning to `CC(C)CC(=O)N1c2ccccc2NC2=C(C(=O)CC(C)(C)C2)C1c1cccs1` (stereo not shown) [compound 248], the EC50 in series [1] (setting [3]) is 7.24 µM. The compound also had an IC50 in series [2] (setting [4]) above 42.6 µM.
On to `COc1ccccc1C1C2=C(CC(C)(C)CC2=O)Nc2ccccc2N1C(=O)Cc1ccccc1` (stereo not shown) [compound 81], for which the EC50 in series [1] (setting [3]) is 6.72 µM. The IC50 in series [2] (setting [4]) was above 42.7 µM.
Compound `CCCN(C)Cc1cccc2c1N(C(C)=O)C(c1ccc(Cl)cc1Cl)C1=C(CC(C)(C)CC1=O)N2` (stereo not shown) returned a melting point above 260 °C.
`COc1ccc(C2CC(=O)C3=C(C2)Nc2ccccc2NC3c2ccc(Cl)cc2)cc1` (stereo not shown) [compound 416]: the EC50 in series [1] (setting [7]) was 11.2 µM. The compound also showed an IC50 in series [2] (setting [8]) above 33.3 µM.
For `CC1(C)CC(=O)C2=C(C1)Nc1cc(C(=O)O)ccc1NC2c1ccc(Cl)cc1Cl` (stereo not shown), the melting point is above 250 °C.
Take `CC1(C)CC(=O)C2=C(C1)Nc1ccccc1N(C(=O)C(F)(F)F)C2c1ccco1` (stereo not shown) [compound 276]: the EC50 in series [1] (setting [3]) is above 32 µM. In series [2] (setting [4]), this compound displayed an IC50 above 42.7 µM.
As for `CC(=O)N1c2ccccc2NC2=C(C(=O)CC(C)(C)C2)C1c1ccc(OC(C)C)cc1` (stereo not shown) [compound 114], the EC50 in series [1] (setting [3]) is above 32 µM. Besides, the half-maximal inhibitory concentration (IC50) in series [2] (setting [4]) is above 42.7 µM.
Consider `CCOc1cc(C2Nc3ccccc3NC3=C2C(=O)CC(c2ccc(Cl)cc2)C3)cc(Br)c1O` (stereo not shown) [compound 353], for which, in series [1] (setting [7]), the half-maximal effective concentration (EC50) stood at 5.3 µM. The same compound gave an IC50 in series [2] (setting [8]) above 42.7 µM.
Regarding `COc1ccc(C2CC(=O)C3=C(C2)Nc2ccccc2N(C(C)=O)C3c2ccco2)cc1` (stereo not shown) [compound 298], the EC50 in series [1] (setting [5]) is above 32 µM. Moreover, the IC50 in series [2] (setting [6]) was above 42.7 µM.
With `CC(=O)N1c2ccccc2NC2=C(C(=O)CC(C)(C)C2)C1c1cccc([N+](=O)[O-])c1` (stereo not shown) [compound 103], in series [1] (setting [3]), the EC50 was above 32 µM. In series [2] (setting [4]), this compound registered an IC50 above 42.7 µM.
Take `CCCCC(=O)N1c2ccccc2NC2=C(C(=O)CC(C)(C)C2)C1c1ccc(F)cc1` (stereo not shown) [compound 10]: the EC50 in series [1] (setting [3]) came to 19.5 µM. Moreover, the IC50 in series [2] (setting [4]) was above 33.3 µM.
`CCOc1ccc(C2C3=C(CC(C)(C)CC3=O)Nc3ccccc3N2C(=O)Cc2ccc(Cl)cc2)cc1` (stereo not shown) [compound 85]: the EC50 in series [1] (setting [3]) came out at 21.4 µM. Further, in series [2] (setting [4]), the IC50 is above 42.7 µM.
`O=C1CC(c2ccccc2OCc2ccccc2)CC2=C1C(c1ccc(Cl)cc1Cl)Nc1ccccc1N2` (single isomer, unassigned) [compound 419, 3-(2-Benzyloxyphenyl)-11-(2,4-dichlorophenyl)-2,3,4,5,10,11-hexahydro-dibenzo[b,e][1,4]diazepin-1-one]: the EC50 in series [1] (setting [7]) was 4.82 µM. This compound showed an IC50 in series [2] (setting [8]) above 42.7 µM.
Take `Cc1ccc(C2C3=C(CC(c4ccc(Cl)cc4)CC3=O)Nc3ccccc3N2C(=O)C(F)(F)F)cc1` (stereo not shown) [compound 160]: the EC50 in series [1] (setting [5]) was above 25 µM. The IC50 in series [2] (setting [6]) was above 33.3 µM.
Turning to `CC(C)CC(=O)N1c2ccccc2NC2=C(C(=O)CC(C)(C)C2)C1c1cccnc1` (stereo not shown) [compound 270], the EC50 in series [1] (setting [3]) worked out at 25.5 µM. In series [2] (setting [4]), this compound returned an IC50 above 33.3 µM.
As for `CC(=O)N1c2ccccc2NC2=C(C(=O)CC(C)(C)C2)C1c1c(Cl)cccc1Cl` (stereo not shown) [compound 50], the EC50 in series [1] (setting [3]) is above 32 µM. Further, the IC50 in series [2] (setting [4]) was above 42.7 µM.
For the compound `CC1(C)CC(=O)C2=C(C1)Nc1ccccc1NC2c1ccc(Oc2ccccc2Br)cc1` (stereo not shown) [compound 442, 11-[4-(2-bromophenoxy)phenyl]-3,3-dimethyl-2,3,4,5,10,11-hexahydro-1H-dibenzo[b,e][1,4]diazepin-1-one], in series [1] (setting [7]), the EC50 was 2.71 µM. In addition, in series [2] (setting [8]), the IC50 was above 133 µM.
